From US10370378B2, “Treatment of sleep disorders” (Evotec International GmbH, priority 2007, dated 2019)
Marks after values point to notes of the source that are not given here.

Legend:
Assay type in all cases: in vivo, human
[1] = tested on: healthy volunteers subjected to road traffic noise; test: Example 1: placebo controlled cross-over study, road noise model
Description: A placebo controlled, randomized, double-blind, cross-over study of the effects of the compound of formula (II) was conducted using a road noise model using 12 healthy volunteers. Specifically, the volunteers were subjected to road traffic noise to imitate the effects of insomnia, and the medication was orally administered 5 minutes before the 11 pm bed time in 1.0 mg, 1.5 mg, 2 mg and 2.5 mg doses in the form of a hard gelatine capsule containing the powdered compound of formula (II) in free base form. Measurements were then taken at 8, 10 and 12 hours after dosing.

[2] = Example 2: single and repeat dose pharmacokinetic, safety and pharmacodynamic study; details: healthy volunteers, oral
Description: A single and repeat dose pharmacokinetic safety and pharmacodynamic study of the effects of the compound of formula (II) was conducted using healthy volunteers. The compound of formula (II) in free base form was administered orally in 1 mg, 1.5 mg, 2 mg and 2.5 mg doses via a hard gelatine capsule containing the compound in powder form.

[3] = Pharmacokinetic profile in non-elderly adults and the elderly (FIG. 16); details: free base
Text: FIG. 16 is a chart showing an exemplary pharmacokinetic (PK) profile of the compound of formula (II) (free base) in both the non-elderly adults and the elderly. Mean dose adjusted plasma concentrations of the compound of formula (II) (free base) in non-elderly (open circle) and elderly males (open square) and M1 (active metabolite of the compound of formula (II) (free base)) in non-elderly adults (filled circle) and the elderly (filled square).
As a result, the inventors determined that the same or similar doses of the compound of formula (II), which are effective for non-elderly adults (18-64 years of age), could be effective for the elderly.

[4] = tested on: primary insomnia in adult patients; test: Example 3: placebo-controlled crossover study in primary insomnia, adult patients younger than 65 (PSG, patient reports, DSST, safety); details: for Number of Patients with Any Event / Number of Patients with Headache / Number of Patients with Somnolence: number (percent)
Description: A randomized, multicenter, double-blind, placebo-controlled crossover study was conducted to assess the efficacy of the 1.5 mg and 2.5 mg doses of the compound of formula (II) in the treatment of primary insomnia in adult patients. Specifically, one of the objectives of the study was to asses the efficacy of 1.5 mg and 2.5 mg doses on PSG and patient-reported measures of sleep. Also, the study was aimed at assessing the safety of 1.5 mg and 2.5 mg doses.
The study in this Example was performed for two consecutive nights with a 5-12 day washout between each period. The dosing was conducted 30 minutes before lights were turned out for the night via oral administration of a hard gelatine capsule containing the compound of formula (II) (free base) in powder form. PSG was taken for 8 hours from “lights out” on nights 1 and 2 of each treatment period. Centralized scoring of PSG was used. Testing for residual effects using the Digit Symbol Substitution Test (DSST) was performed at least 30 minutes after wake time (9 hours post dose).
The study was conducted using 67 subjects younger than 65 years of age (21 males, 46 females; mean age 45.1 yrs, range 23-64 yrs) with a documented diagnosis of primary insomnia (DSM-IV criteria). These subjects' typical bed time was between 9 pm and 1 am with at least 7 hours in bed. These subjects reported sleep latency of at least 45 minutes and TST of not more than 6.5 hours in a sleep diary for at least 3 of 7 nights.
Mean WASO of the patients was at least 40 minutes and mean TST was 240-420 minutes.

[5] = 1.5, 2.0 & 2.5 mg oral, objective
[6] = all 4 doses (1.0, 1.5, 2, 2.5 mg)
[7] = all 4 doses, objective residual effects

SMILES: CN(C)Cc1nc(-c2ncn3c2CN(C)C(=O)c2c(Cl)cccc2-3)no1 [compound of formula (II), 7-chloro-3-(5-dimethylaminomethyl-[1,2,4]oxadiazol-3-yl)-5-methyl-4,5-dihydro-imidazo[1,5-a][1,4]benzodiazepine-6-one]
- Subjective assessment (LARS): Coordination ([1]; 2.5 mg): No impairment
- Subjective assessment (LARS): Mood ([1]; 2.5 mg): No impairment
- Subjective assessment (LARS): Sedation ([1]; 2.5 mg): No impairment
- WASO, 2nd half (hrs 5-8) [1, 5]: Significantly reduced
- WASO, full night (hrs 0-8) [1, 5]: Significantly reduced
- Sleep Efficiency Index ([1]; 2.0 & 2.5 mg oral, objective): Significantly improved
- TST ([1]; 2.0 & 2.5 mg oral, objective): Significantly improved
- Performance on any of the cognitive or psychomotor tests ([1]; 8 to 12 hours after dose, data corrected for multiple comparisons): no impairment
- Choice Reaction Time - Motor Component ([1]; all 4 doses): No effect (all 4 doses)
- Critical Flicker Fusion Test ([1]; all 4 doses): No effect (all 4 doses)
- Word Recall - delayed (WRd) ([1]; all 4 doses): No effect (all 4 doses)
- SWS (% and duration) [1, 6]: Significantly increased
- Stage IV Sleep (% and duration) [1, 6]: Significantly increased
- Leeds Sleep Evaluation Questionnaire: Getting to sleep ([1]; all 4 doses, model considered nondiscriminant for sleep onset): (No effect to all 4 doses)*
- Rapid Visual Information Processing [1, 7]: No effect (all 4 doses)
- Sustained Attention to Response (SART) [1, 7]: No effect (all 4 doses)
- Leeds Sleep Evaluation Questionnaire: Early morning behaviour (clumsiness & tiredness) ([1]; all 4 doses, subjective): No effect (all 4 doses)
- Leeds Sleep Evaluation Questionnaire: Ease of awakening ([1]; all 4 doses, subjective): No effect (all 4 doses)
- Sternberg Memory Task (STM) ([1]; at 8 or 12 h, all 4 doses): No effect at 8 or 12 h (all 4
- Continuous Tracking Task - reaction time ([1]; at 10 or 12 h, all 4 doses): No effect at 10 or 12 h (all
- Continuous Tracking Task - deviation ([1]; at 8 h, all 4 doses): No effect at 8 h (all 4
- effect of food on the extent of absorption [2]: little or no effect
- pharmacokinetic profile on day 14 after repeat dosing compared to day 1 [2]: no significant differences
- pharmacokinetic (PK) profile in non-elderly versus elderly [3]: similar
- Number of Patients with Any Event ([4]; 1.5 mg (n = 71)): 13 (18.3%)
- Number of Patients with Headache ([4]; 1.5 mg (n = 71)): 3 (4.2%)
- Number of Patients with Somnolence ([4]; 1.5 mg (n = 71)): 2 (2.8%)
- safety and tolerability ([4]; 1.5 mg and 2.5 mg doses): safe and well-tolerated
- patient-reported residual sedation effects compared with placebo ([4]; 1.5 mg or 2.5 mg): no patient-reported residual sedation effects
- Number of Patients with Any Event ([4]; 2.5 mg (n = 71)): 18 (25.4%)
- Number of Patients with Headache ([4]; 2.5 mg (n = 71)): 6 (8.5%)
- Number of Patients with Somnolence ([4]; 2.5 mg (n = 71)): 4 (5.6%)
- total time awake during each hour after dosing ([4]; 2.5 mg, each hour except hour 7 (p 0.0577)): statistically significant reduction
- REM sleep (sleep architecture) ([4]; 1.5 and 2.5 mg): only a small effect
- slow wave sleep (sleep architecture) ([4]; 1.5 and 2.5 mg): no impairment
- patient reported sleep quality ([4]; 1.5 and 2.5 mg doses): marked improvement
- DSST scores compared with placebo ([4]; 9 hours after dose): only slightly lower
